Data published in ChEMBL document CHEMBL3882246, “Benzoxazole kinase inhibitors and methods of use” (2010).
Activity calls are given as the source filed them. No cut-off for these calls is given here.

Columns and labels:
[1] = Antiproliferative activity against human PC3 cells measured after 72 hrs by Alamar blue dye-based fluorescence analysis; assay type: functional, cell-based, PC-3; details: for EC50: Homo sapiens, PC-3, 72 h
[2] = Antiproliferative activity against human HT1080 cells measured after 72 hrs by Alamar blue dye-based fluorescence analysis; assay type: functional, cell-based; details: ht-1080
[3] = Antiproliferative activity against human BT474 cells measured after 72 hrs by Alamar blue dye-based fluorescence analysis; assay type: functional, cell-based; details: bt-474
[4] = Antiproliferative activity against human MCF7-FL cells measured after 72 hrs by Alamar blue dye-based fluorescence analysis; assay type: functional, cell-based
[5] = Antiproliferative activity against human 143B cells measured after 72 hrs by Alamar blue dye-based fluorescence analysis; assay type: functional, cell-based
[6] = Antiproliferative activity against human SKHEP1 cells measured after 72 hrs by Alamar blue dye-based fluorescence analysis; assay type: functional, cell-based; details: sk-hep1
[7] = Antiproliferative activity against human MCF7-218 cells measured after 72 hrs by Alamar blue dye-based fluorescence analysis; assay type: functional, cell-based
[8] = Antiproliferative activity against human COLO205 cells measured after 72 hrs by Alamar blue dye-based fluorescence analysis; assay type: functional, cell-based; details: colo 205
[9] = target: Serine/threonine-protein kinase mTOR (Homo sapiens) (UniProt P42345); test: Inhibition of mTOR in human U87 cells assessed as reduction in pAKT phosphorylation at residue […] by Western blot method; assay type: cell-based; details: U-87MG ATCC
[10] = target: Serine/threonine-protein kinase mTOR (Homo sapiens) (UniProt P42345); test: Inhibition of mTOR in human U87 cells assessed as reduction in p4EBP1 phosphorylation by Western blot method; assay type: cell-based; details: U-87MG ATCC
[11] = target: Ribosomal protein S6 kinase beta-1 (Homo sapiens) (UniProt P23443); test: Inhibition of mTOR pS6K in human U87 cells assessed as inhibition of RAS40 phosphorylation by Western blot analysis; assay type: cell-based; details: U-87MG ATCC
Chain of Ribosomal protein S6 kinase beta-1 (Homo sapiens) (P23443 whole entry, looked up): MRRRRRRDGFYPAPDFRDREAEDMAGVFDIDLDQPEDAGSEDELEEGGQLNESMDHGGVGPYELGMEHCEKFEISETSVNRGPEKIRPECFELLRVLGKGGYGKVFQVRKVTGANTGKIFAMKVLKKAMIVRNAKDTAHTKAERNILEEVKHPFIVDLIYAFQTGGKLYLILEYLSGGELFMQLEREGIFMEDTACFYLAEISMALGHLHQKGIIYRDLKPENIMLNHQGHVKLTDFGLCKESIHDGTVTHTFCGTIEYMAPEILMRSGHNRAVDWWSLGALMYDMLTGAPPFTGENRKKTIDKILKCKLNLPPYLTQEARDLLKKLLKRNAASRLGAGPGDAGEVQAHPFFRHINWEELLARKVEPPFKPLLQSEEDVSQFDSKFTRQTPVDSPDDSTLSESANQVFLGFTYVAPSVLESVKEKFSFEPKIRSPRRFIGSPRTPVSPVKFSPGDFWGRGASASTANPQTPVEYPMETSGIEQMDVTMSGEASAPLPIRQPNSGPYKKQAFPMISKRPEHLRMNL

[12] = target: Serine/threonine-protein kinase mTOR (Homo sapiens) (UniProt P42345); test: Inhibition of mTOR in human U87 cells assessed as reduction in pRAS40 phosphorylation by Western blot method; assay type: cell-based; details: U-87MG ATCC
[13] = Toxicity in mouse xenografted with human U87 cells assessed as weight loss at 0.3 to 3 mg/kg measured after 14 days; assay type: organism-based, U-87MG ATCC; details: in vivo, 336 h
[14] = test system: U-87MG ATCC; test: Antitumor activity against human U87 cells xenografted in mouse assessed as tumor growth inhibition at 0.3 to 3 mg/kg measured after 14 days; assay type: functional, organism-based
[15] = target: Ribosomal protein S6 kinase beta-1 (Homo sapiens) (UniProt P23443); test: Inhibition of mTOR pS6K in human U87 cells assessed as inhibition of 4EBP1 phosphorylation by Western blot analysis; assay type: cell-based; details: U-87MG ATCC
[16] = test system: U-87MG ATCC; test: Inhibition of mTORC1/2 in human U87 cells assessed as inhibition of Akt-phosphorylation at S473 residue by Western blot analysis; assay type: cell-based
[17] = Antiproliferative activity against human LNCAP cells measured after 72 hrs by Alamar blue dye-based fluorescence analysis; assay type: functional, cell-based
[18] = Antiproliferative activity against human BxPC3 cells measured after 72 hrs by Alamar blue dye-based fluorescence analysis; assay type: functional, cell-based; details: bxpc-3
[19] = Antiproliferative activity against human MIAPaCa2 cells measured after 72 hrs by Alamar blue dye-based fluorescence analysis; assay type: functional, cell-based; details: mia paca-2
[20] = Antiproliferative activity against human HCT116 cells measured after 72 hrs by Alamar blue dye-based fluorescence analysis; assay type: functional, cell-based; details: hct-116
[21] = Antiproliferative activity against human 786-O cells measured after 72 hrs by Alamar blue dye-based fluorescence analysis; assay type: functional, cell-based; details: 786-0
[22] = Antiproliferative activity against human HepG2 cells measured after 72 hrs by Alamar blue dye-based fluorescence analysis; assay type: functional, cell-based

SMILES: Nc1nc2cc(-c3cn(C4CCOCC4)c4ncnc(N)c34)ccc2o1
- EC50 [1]: < 0.1 µM

SMILES: CC(C)n1cc(-c2ccc3oc(N)nc3c2)c2c(N)ncnc21
- EC50 [1]: < 0.1 µM

SMILES: COc1cccc2c1C(=O)c1c(O)c3c(c(O)c1C2=O)C[C@@](O)(C(=O)CO)C[C@@H]3O[C@H]1C[C@H](N)[C@H](O)[C@H](C)O1 [DOXORUBICIN]
- IC50 [2]: Active
- IC50 [3]: Active
- IC50 [4]: Active
- IC50 [5]: Active
- IC50 [6]: Active
- IC50 [7]: Active

SMILES: CCc1c2c(nc3ccc(OC(=O)N4CCC(N5CCCCC5)CC4)cc13)-c1cc3c(c(=O)n1C2)COC(=O)[C@]3(O)CC [IRINOTECAN]
- IC50 ([1]; pc-3): Active
- IC50 [8]: Active

SMILES: CC(C)n1nc(-c2ccc3c(N)noc3c2)c2c(N)ncnc21
- EC50 [1]: > 10 µM

SMILES: CC(C)n1nc(-c2ccc3nc(N)oc3c2)c2c(N)ncnc21
- EC50 [1]: < 10 µM

SMILES: Nc1nc2cc(-c3nn(C4CCOCC4)c4ncnc(N)c34)ccc2o1
- EC50 [1]: < 0.1 µM

SMILES: Nc1nc2cc(-c3nn(C4CCC(N5CCOCC5)CC4)c4ncnc(N)c34)ccc2o1 (configuration not stated)
- EC50 [1]: < 1 µM

SMILES: CC(=O)Nc1nc2cc(-c3nn(C(C)C)c4ncnc(N)c34)ccc2o1
- EC50 [1]: < 1 µM

SMILES: CC(=O)Nc1noc2cc(-c3nn(C(C)C)c4ncnc(N)c34)ccc12
- EC50 [1]: > 10 µM

SMILES: CC(C)n1nc(-c2ccc3oc(N)nc3c2)c2c(N)ncnc21 [SAPANISERTIB]
- inhibition [9]: Active
- inhibition [10]: Active
- inhibition [11]: Active
- inhibition [12]: Active
- Activity [13]: Non-Toxic
- growth inhibition (GI) [14]: Active
- inhibition [15]: Active
- inhibition [16]: Dose-dependent effect

SMILES: CC(=O)O[C@H]1C(=O)[C@@]2(C)[C@H]([C@H](OC(=O)c3ccccc3)[C@]3(O)C[C@H](OC(=O)[C@H](O)[C@@H](NC(=O)c4ccccc4)c4ccccc4)C(C)=C1C3(C)C)[C@]1(OC(C)=O)CO[C@@H]1C[C@@H]2O [PACLITAXEL]
- IC50 [17]: Active

SMILES: CC(C)n1nc(-c2ccc3onc(N)c3c2)c2c(N)ncnc21
- EC50 [1]: > 10 µM

SMILES: O=c1[nH]cc(F)c(=O)[nH]1 [FLUOROURACIL]
- IC50 [18]: Active
- IC50 [19]: Active
- IC50 [20]: Active
- IC50 [21]: Active
- IC50 [22]: Active

SMILES: CC(=O)N1CCC(n2nc(-c3ccc4oc(N)nc4c3)c3c(N)ncnc32)CC1
- EC50 [1]: < 10 µM
